Counter-ions that a name gives are not always drawn.
How the values were obtained:
[1] = molecular target: recombinant BACE1 protein (Homo sapiens, UniProt P56817); assay: Biochemical FRET based assay; settings: recombinant BACE1 1 μg/ml, 120 minutes at room temperature, pH 5.0; for IC50: read-out: Biochemical FRET based assay pIC50 (converted)
How it was run: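 Proteolysis was read as the rise in donor fluorescence (320 nm excitation, 405 nm emission) from T0 to T120, expressed in RFU. The reaction ran 120 minutes at room temperature at pH 5.0 in citrate buffer with 4% DMSO, using […] quenched Swedish APP peptide and 1 μg/ml BACE1.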

[2] = tested on: Abeta total; assay: Cellular αLisa assay in SKNBE2 cells, Abeta total; assay type: cell-based, human; settings: incubated for 18 hours; for IC50: Homo sapiens, SKNBE2, 18 h, read-out: Cellular αLisa assay in SKNBE2 cells Abetatotal pIC50 (converted)
How it was run: (§1)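 Secreted Abeta levels were measured by sandwich αLisa, pairing biotin-AbN/25 donor beads with Ab4G8 acceptor beads for total Abeta or cAb42/26 for Abeta 1-42, read at 615 nm after 650 nm excitation following 1 hour. Cells were SKNBE2 expressing wild-type hAPP695, exposed to compound for 18 hours.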

[3] = tested on: Aβ42; assay: Demonstration of in vivo efficacy, brain Aβ42 lowering (ELISA); settings: mouse brain
From the text: (§2) To determine whether acute administration of an Aβ42 peptide lowering agent would reduce Aβ peptide levels in vivo, non-transgenic rodents, e.g. mice or rats were used. Animals treated with the Aβ peptide lowering agent were examined and compared to those untreated or treated with vehicle and brain levels of soluble Aβ42 and total Aβ were quantitated by standard techniques, for example, using ELISA.
(§3) A typical protocol for measuring Aβ42 lowering in vivo is shown but it is only one of many variations that could be used to optimize the levels of detectable Aβ. For example, Aβ peptide lowering compounds were formulated in 20% hydroxypropyl 3 cyclodextrin. The Aβ peptide lowering agents were administered as a single oral dose (p.o.) or a single subcutaneous dose (s.c.) to overnight fasted animals. After a certain time, usually 2 or 4 h (as indicated in Table 19), the animals were sacrificed and Aβ42 levels were analysed.
(§4) Blood was collected by decapitation and exsanguinations in EDTA-treated collection tubes. Blood was centrifuged at 1900 g for 10 minutes (min) at 4° C. and the plasma recovered and flash frozen for later analysis. The brain was removed from the cranium and hindbrain. The cerebellum was removed and the left and right hemisphere were separated. The left hemisphere was stored at −18° C. for quantitative analysis of test compound levels. The right hemisphere was rinsed with phosphate-buffered saline (PBS) buffer and immediately frozen on dry ice and stored at −80° C. until homogenization for biochemical assays.
(§5) Mouse brains from non-transgenic animals were resuspended in 8 volumes of 0.4% DEA (diethylamine)/50 mM NaCl containing protease inhibitors (Roche-11873580001 or 04693159001) per gram of tissue, e.g. for 0.158 g brain, add 1.264 ml of 0.4% DEA. All samples were homogenized in the FastPrep-24 system (MP Biomedicals) using lysing matrix D (MPBio #6913-100) at 6 m/s for 20 seconds. Homogenates were centrifuged at 221.300×g for 50 min. The resulting high speed supernatants were then transferred to fresh eppendorf tubes. Nine parts of supernatant were neutralized with 1 part 0.5 M Tris-HCl pH 6.8 and used to quantify Aβtotal and Aβ42.
(§6) To quantify the amount of Aβtotal and Aβ42 in the soluble fraction of the brain homogenates, Enzyme-Linked-Immunosorbent-Assays were used. Briefly, the standards (a dilution of synthetic Aβ1-40 and Aβ1-42, Bachem) were prepared in 1.5 ml Eppendorf tube in Ultraculture, with final concentrations ranging from 10000 to 0.3 pg/ml. The samples and standards were co-incubated with HRPO-labelled N-terminal antibody for Aβ42 detection and with the biotinylated mid-domain antibody 4G8 for Aβtotal detection. […] The plate was allowed to incubate overnight at 4° C. in order to allow formation of the antibody-amyloid complex. Following this incubation and subsequent wash steps the ELISA for Aβ42 quantification was finished by addition of Quanta Blu fluorogenic peroxidase substrate according to the manufacturer's instructions (Pierce Corp., Rockford, Ill.). A reading was performed after 10 to 15 min (excitation 320 nm/emission 420 nm).

[4] = tested on: Abeta 1-42; assay: Cellular αLisa assay in SKNBE2 cells, Abeta 1-42; assay type: cell-based, human; settings: incubated for 18 hours; for IC50: Homo sapiens, SKNBE2, 18 h, read-out: Cellular αLisa assay in SKNBE2 cells Abeta 42 pIC50 (converted)
How it was run: as §1

[5] = tested on: Aβtotal; assay: Demonstration of in vivo efficacy, brain Aβtotal lowering (ELISA); settings: mouse brain
From the text: as §2, §3, §4, §5, §6
For Aβtotal detection, a Streptavidine-Peroxidase-Conjugate was added, followed 60 min later by an additional wash step and addition of Quanta Blu fluorogenic peroxidase substrate according to the manufacturer's instructions (Pierce Corp., Rockford, Ill.). A reading was performed after 10 to 15 min (excitation 320 nm/emission 420 nm).

Sequence of recombinant BACE1 protein (P56817 46-501): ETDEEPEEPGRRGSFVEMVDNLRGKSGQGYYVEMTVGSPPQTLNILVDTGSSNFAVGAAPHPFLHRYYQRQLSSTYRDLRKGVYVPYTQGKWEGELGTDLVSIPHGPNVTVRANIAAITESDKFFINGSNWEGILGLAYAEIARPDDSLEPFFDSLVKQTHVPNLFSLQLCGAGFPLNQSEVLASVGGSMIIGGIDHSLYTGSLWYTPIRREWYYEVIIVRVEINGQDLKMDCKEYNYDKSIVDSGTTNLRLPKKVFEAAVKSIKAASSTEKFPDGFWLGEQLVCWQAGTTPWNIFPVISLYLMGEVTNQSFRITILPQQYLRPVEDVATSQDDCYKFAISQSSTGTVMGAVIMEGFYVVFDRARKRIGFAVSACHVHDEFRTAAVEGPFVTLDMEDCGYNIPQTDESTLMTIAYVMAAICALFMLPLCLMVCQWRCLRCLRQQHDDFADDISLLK

IC50 [1] [nM] | IC50 [2] [nM] | IC50 [4] [nM] | melting point [°C] | Biochemical FRET based assay pIC50 [1] | Cellular αLisa assay in SKNBE2 cells Abetatotal pIC50 [2] | Cellular αLisa assay in SKNBE2 cells Abeta 42 pIC50 [4] | SMILES | Aβ42 (% Ctrl)_Mean ([3]; 30 mpk, s.c., 4 h) [% Ctrl] | Aβtotal (% Ctrl)_Mean ([5]; 30 mpk, s.c., 4 h) [% Ctrl] | Aβ42 (% Ctrl)_Mean ([3]; 30 mpk, s.c., 2 h) [% Ctrl] | Aβtotal (% Ctrl)_Mean ([5]; 30 mpk, s.c., 2 h) [% Ctrl] | Aβ42 (% Ctrl)_Mean ([3]; 5 mpk, s.c., 4 h) [% Ctrl] | Aβtotal (% Ctrl)_Mean ([5]; 5 mpk, s.c., 4 h) [% Ctrl] | Aβ42 (% Ctrl)_Mean ([3]; 30 mpk, p.o., 4 h) [% Ctrl] | Aβtotal (% Ctrl)_Mean ([5]; 30 mpk, p.o., 4 h) [% Ctrl]
24000 | 1020 | 1480 |  |  |  |  | CC1(c2cccc(-c3ccccc3)c2)COCC(N)=N1 (racemic) [Compound 1, rac-5-biphenyl-3-yl-5-methyl-5,6-dihydro-2H-1,4-oxazin-3-amine trifluoroacetate salt] | 102 | 97 |  |  |  |  |  | 
3470 | 8510 | > 10000 | 193.3 |  |  |  | CC1(c2cccc(NC(=O)c3ccc(Cl)cn3)c2)COC(F)(C(F)(F)F)C(N)=N1 (racemic) [Compound 9, rac-N-{3-[5-amino-6-fluoro-3-methyl-6-(trifluoromethyl)-3,6-dihydro-2H-1,4-oxazin-3-yl]phenyl}-5-chloropyridine-2-carboxamide] | 87 | 101 |  |  |  |  |  | 
2040 | 178 | 214 | 79.5 |  |  |  | COc1cncc(-c2cccc(C3(C)COCC(N)=N3)c2)c1 (single isomer, unassigned) [Compound 8] | 92 | 98 |  |  |  |  |  | 
 |  |  |  | 6.93 | 7.88 | 7.91 | CC1(c2cccc(NC(=O)c3ccc(C#N)cn3)c2)COCC(N)=N1 (single isomer, unassigned) [Compound 50] |  |  |  |  | 133 | 95 |  | 
36.3 |  |  | 94.6 |  | 8.09 | 8.06 | CC1(c2cc(NC(=O)c3ncc(Cl)cc3Cl)ccc2F)N=C(N)COC1F (single isomer, unassigned) [Compound 126] | 27 | 32 |  |  |  |  | 26 | 31

The next lines start with the compound.

SMILES | IC50 [1] [nM] | IC50 [2] [nM] | IC50 [4] [nM] | melting point [°C] | Biochemical FRET based assay pIC50 [1] | Cellular αLisa assay in SKNBE2 cells Abetatotal pIC50 [2] | Cellular αLisa assay in SKNBE2 cells Abeta 42 pIC50 [4] | Aβ42 (% Ctrl)_Mean ([3]; 30 mpk, s.c., 4 h) [% Ctrl] | Aβtotal (% Ctrl)_Mean ([5]; 30 mpk, s.c., 4 h) [% Ctrl] | Aβ42 (% Ctrl)_Mean ([3]; 30 mpk, s.c., 2 h) [% Ctrl] | Aβtotal (% Ctrl)_Mean ([5]; 30 mpk, s.c., 2 h) [% Ctrl] | Aβ42 (% Ctrl)_Mean ([3]; 5 mpk, s.c., 4 h) [% Ctrl] | Aβtotal (% Ctrl)_Mean ([5]; 5 mpk, s.c., 4 h) [% Ctrl] | Aβ42 (% Ctrl)_Mean ([3]; 30 mpk, p.o., 4 h) [% Ctrl] | Aβtotal (% Ctrl)_Mean ([5]; 30 mpk, p.o., 4 h) [% Ctrl]
CC1(c2cccc(NC(=O)c3ccc(C(F)(F)F)cn3)c2)COCC(N)=N1 (racemic) [Compound 14] |  |  |  |  | 6.28 | 7.56 | 7.49 | 107 | 116 |  |  |  |  |  | 
CC1(c2cc(-c3cncnc3)c(F)cc2F)COCC(N)=N1 (racemic) [Compound 59] |  |  |  |  | 5.36 | 6.417 | 6.44 |  |  | 114 | 95 |  |  |  | 
CC1(c2cccc(-c3cncnc3)c2)N=C(N)COC1F (single isomer, unassigned) [Compound 96] | 11200 |  |  |  |  | 6.43 | 6.46 | 116 | 104 |  |  |  |  |  | 
CC1(c2cccc(-c3cncnc3)c2)N=C(N)COC1(F)C(F)(F)F (single isomer, unassigned) [Compound 117] | 437 |  |  |  |  | 6.55 | 6.59 |  |  | 95 | 86 |  |  |  | 
CC1(c2cc(NC(=O)c3ccc(C#N)cn3)ccc2F)N=C(N)COC1F (single isomer, unassigned) [Compound 124] |  |  |  |  |  | 8.2 | 8.21 |  |  |  |  |  |  | 23 | 25

From patent publication US9828350B2, “5,6-dihydro-2H-[1,4]oxazin-3-yl-amine derivatives useful as inhibitors of beta-secretase (BACE)” (Janssen Pharmaceutica NV, priority 2010, dated 2017)
